Results from patent publication US20030073206A1, “Use of xylene monooxygenase for the oxidation of substituted monocyclic aromatic compounds” (priority 2001, published 2003).

Columns and labels:
Sphingomonas strain ASU1 = experiment: Carbon source utilization for strain ASU1 (growth on S12 agar with aromatic compounds); type: cell-based, Sphingomonas sp.; details: compound as sole source of carbon and energy, 28° C.
Description: S12 agar was used to isolate bacteria from liquid enrichment cultures that grow on 2,6-dimethylnaphthalene (2,6-DMN) and to test isolates for growth with various sources of carbon and energy. S12 agar was prepared by adding 1.5% Noble agar (DIFCO) to S12 medium.
Bacteria that grow on 2,6-DMN were isolated from an enrichment culture. The enrichment culture was established by inoculating 0.1 mL of activated sludge into 10 mL of S12 medium in a 125 mL screw cap Erlenmeyer flask. The activated sludge was obtained from a wastewater treatment facility in Ponco City. The enrichment culture was supplemented with adding yeast extract (0.001 % final concentration) by adding a few flakes of 2,6-DMN directly to the culture medium. The enrichment culture was incubated at 28° C. with reciprocal shaking. The culture was diluted every 4 to 7 d by replacing 9 mL of the culture with the same volume of S12 medium with 0.001% yeast extract and a few additional flakes of 2,6-DMN. Bacteria that utilized 2,6-DMN as a sole source of carbon and energy were isolated by spreading samples of the enrichment culture onto S12 agar. 2,6-DMN was placed on the interior of each Petri dish lid. The Petri dishes were sealed with parafilm and incubated upside down at 28° C. Representative bacterial colonies were then tested for the ability to use 2,6-DMN as a sole source of carbon and energy. […]

[1] = test system: xylene monooxygenase (xylM and xylA) cloned from Sphingomonas strain ASU1; experiment: Oxidation of p-xylene by Escherichia coli recombinant with cloned ASU1 xylene monooxygenase genes (Clone 4a), HPLC of culture supernatant; type: cell-based; details: Clone 4a culture in M9 medium with p-xylene, 37° C., after 24 h of incubation
Description: (§1) Standard M9 minimal medium were used to assay for oxidation of p-xylene by Escherichia coli with cloned xylene monooxygenase. The M9 medium consisted of 42.3 mM Na2HPO4, 22.1 mM KH2PO4, 8.6 mM NaCl, 18.7 mM NH4Cl, 2 mM MgSO4 and 0.1 mM CaCl2, 0.4% of glycerol was used as the carbon/energy source.
(§2) Analyses were performed on a Hewlett Packard 1100 series with a photo diode UV-visible detector set at 230 nm (primary wavelength), 254 nm (secondary wavelength) and 450 nm as background reference and a LC/MSD-ESI negative ion spectrophotometer. The column was a Hewlett Packard part # 880967.901 Zorbax® SB-C8 (4.6 mm×25 cm), purchased from Agilient Technologies (Palo Alto, Calif.). The column temperature was controlled at 50° C. Mobile phase was […] ammonium acetate (20 mL 1 M ammonium acetate in 1800 mL water (solvent-2=S-2)) and acetonitrile (solvent-1=S-1). […]
(§3) The conversion of p-xylene to 4-hydroxymethylbenzoic acid was monitored by reverse phase HPLC. […]
(§4) Escherichia coli strain TOP10(pCR®2.1 TOPO™) and Escherichia coli clones expressing xylene monooxygenase (Clone 4a and Clone 6f) were inoculated into 500 mL Erlenmyer flasks containing 50 mL of M-9 supplemented with tryptophan (100 μg/mL), glycerol (0.4%), casamino acids (0.4%) and 50 μg/mL ampicillin. […] The sample supernatants were passed through 0.22 μm Acrodisc® CR PFTE filters and analyzed for metabolites of p-xylene by HPLC.

[2] = biological target: T1, xylene monooxygenase (xylM and xylA) cloned from plasmid pWWO (Pseudomonas putida, UniProt P21395); experiment: Oxidation of p-xylene by Escherichia coli recombinant with cloned pWWO xylene monooxygenase genes (Clone 6f), HPLC of culture supernatant; type: cell-based; details: Clone 6f culture in M9 medium with p-xylene, 37° C., after 24 h of incubation
T1 construct: expressed in transfected cells; host or cells: Escherichia coli TOP10 carrying pCR2.1-TOPO with a 2.4 kb pWWO xylM-xylA PCR fragment from P. putida ATCC 33015 (Clone 6f)
Description: as §1, §2, §3, §4

T1 sequence (P21395 whole entry, the tested form may be a part): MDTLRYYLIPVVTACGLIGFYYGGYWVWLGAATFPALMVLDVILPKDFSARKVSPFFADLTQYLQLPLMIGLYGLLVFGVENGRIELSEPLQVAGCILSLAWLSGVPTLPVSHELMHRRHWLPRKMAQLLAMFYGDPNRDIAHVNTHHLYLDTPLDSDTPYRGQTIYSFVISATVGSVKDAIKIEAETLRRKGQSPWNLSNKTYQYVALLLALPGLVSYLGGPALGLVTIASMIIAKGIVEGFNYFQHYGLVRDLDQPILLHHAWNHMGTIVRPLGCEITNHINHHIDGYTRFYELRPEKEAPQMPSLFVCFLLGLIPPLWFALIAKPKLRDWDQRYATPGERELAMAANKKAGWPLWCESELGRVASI

With `c1ccccc1` [Benzene] the “Growth on Carbon Source” value (Sphingomonas strain ASU1) was “unable to utilize”.

With `Cc1ccc(C)cc1` [p-xylene] the “p-xylene metabolites detected by HPLC” value [1] was “Three p-xylene metabolites were detected” and the “p-xylene metabolites detected by HPLC” value [2] was “Three p-xylene metabolites were detected”.

In the case of `Cc1ccc2cc(C)ccc2c1` [2,6-dimethylnaphthalene], the “Growth on Carbon Source” value (Sphingomonas strain ASU1; listed as 2,6-DMN) is reported as “able to grow”.
